Test results taken from patent US20080200501A1, “NOVEL CANNABINOID RECEPTOR LIGANDS, PHARMACEUTICAL COMPOSITIONS CONTAINING THEM, AND PROCESSES FOR THEIR PREPARATION” (Glenmark Pharmaceuticals S.A., priority 2006, published 2008).

Tests used:
[1] = Pharmacokinetic study, single oral dose in rats; format: in vivo; conditions: Sprague-Dawley, rat; mean; male Sprague-Dawly rats, single oral dose 10 mg/kg in 0.5% methylcellulose suspension, overnight fasted; plasma, HPLC-UV
Experimental: Male Sprague-Dawly rats were administered by oral gavage a single oral dose of 10 mg/kg b.wt. test compound in 0.5% methylcellulose suspension in overnight fasted (12 hrs before dose) condition. Fasting was continued till 4 hr post dose. Blood samples were collected predose and at 15 and 30 minutes and 1, 2, 3, 4, 6, 8, 12 and 24 hrs post-dose and were kept on an ice bath till further processing. These samples were separated for plasma by centrifuging at 4° C. for 10 minutes at 1000×g and then stored at −70° C. till further analysis. These samples were analyzed for the levels of the test compound by HPLC-UV and the pharmacokinetic parameters were calculated using these concentrations by using WinNonlin software (Pharsight Inc., USA, Version 5.1).

melting point	Compound	AUC(0-inf) [1]	AUC(0-t) [1]	Cmax [1]	Tmax [1]	half-life [1]
76 to 78 °C	CCCCCC(C)(C)NC(=O)c1nn(-c2ccc(F)cc2F)c2c1C1CCC2C1 (stereo not drawn)	–	–	–	–	–
–	CC(C)(CO)NC(=O)c1nn(-c2ccc(Cl)cc2)c2c1[C@@H]1CC[C@H]2C1 (single isomer, unassigned) [Compound 98, (1S,7R)- or (1R,7S)-N5-(2-Hydroxy-1,1-dimethylethyl)-3-(4-chlorophenyl)-3,4-diazatricyclo[5.2.1.0^2,6]deca-2(6),4-diene-5-carboxamide]	12000 ng·h/mL	11700 ng·h/mL	1950 ng/mL	0.5 h	4.77 h
